Test results from ChEMBL document CHEMBL4402590, “Small-Molecule Antagonist Targeting Exportin-1 via Rational Structure-Based Discovery” (J Med Chem, 2020).
The source made the active and inactive calls. The calls are words filed in the database; no cut-off is given here.

What was measured:
[1] = test system: Mus musculus; assay: Anti-inflammatory activity against DSS-induced ulcerative colitis C57BL/6J mouse model assessed as reduction in colon swelling at 3 and 30 mg/kg, po administered for 7 days and measured on day 7 by […] and eosin staining based microscopic analysis; type: functional, organism-based
[2] = test system: Mus musculus; assay: Anti-inflammatory activity against DSS-induced ulcerative colitis C57BL/6J mouse model assessed as reduction in colon ulceration at 3 and 30 mg/kg, po administered for 7 days and measured on day 7 by […] and eosin staining based microscopic analysis; type: functional, organism-based
[3] = test system: Mus musculus; assay: Anti-inflammatory activity against DSS-induced ulcerative colitis C57BL/6J mouse model assessed as preservation of colon mucosal architecture at 3 and 30 mg/kg, po administered for 7 days and measured on day 7 by […] and eosin staining based microscopic analysis; type: functional, organism-based
[4] = test system: Mus musculus; assay: Anti-inflammatory activity against DSS-induced ulcerative colitis C57BL/6J mouse model assessed as re-epithelialization of colon at 3 and 30 mg/kg, po administered for 7 days and measured on day 7 by […] and eosin staining based microscopic analysis; type: functional, organism-based
[5] = test system: Mus musculus; assay: Anti-inflammatory activity against DSS-induced ulcerative colitis C57BL/6J mouse model assessed as reduction in colon inflammation at 3 and 30 mg/kg, po administered for 7 days and measured on day 7 by […] and eosin staining based microscopic analysis; type: functional, organism-based
[6] = test system: Mus musculus; assay: Anti-inflammatory activity against DSS-induced ulcerative colitis C57BL/6J mouse model assessed as reduction in colon inflammation at 10 mg/kg, po administered for 7 days and measured on day 7; type: functional, organism-based
[7] = test system: Mus musculus; assay: Anti-inflammatory activity against DSS-induced ulcerative colitis C57BL/6J mouse model assessed as reduction in impairment of wound healing genes at 30 mg/kg, po administered for 7 days and measured on day 7 by proteomic analysis; type: functional, organism-based
[8] = test system: Mus musculus; assay: In vivo inhibition of NFkappaB in C57BL/6J mouse DSS-induced ulcerative colitis model assessed as increase in HO1 expression at 10 and 30 mg/kg, po administered for 7 days and measured on day 7 by Western blot analysis; type: functional, organism-based
[9] = test system: Mus musculus; assay: Anti-inflammatory activity against DSS-induced ulcerative colitis C57BL/6J mouse model assessed as reduction in impairment of cell-cell adhesion genes at 30 mg/kg, po administered for 7 days and measured on day 7 by proteomic analysis; type: functional, organism-based
[10] = Toxicity in C57BL/6 mouse assessed as effect on spleen at 300 to 600 mg/kg, po administered for 7 days and measured on day 14; type: organism-based; conditions: in vivo, 168 h
[11] = test system: Mus musculus; assay: In vivo inhibition of NFkappaB in C57BL/6J mouse DSS-induced ulcerative colitis model assessed as restoration of occludin expression at 10 and 30 mg/kg, po administered for 7 days and measured on day 7 by Western blot analysis; type: functional, organism-based
[12] = test system: Mus musculus; assay: Anti-inflammatory activity against DSS-induced ulcerative colitis C57BL/6J mouse model assessed as reduction in impairment of inflammatory response genes at 30 mg/kg, po administered for 7 days and measured on day 7 by proteomic analysis; type: functional, organism-based
[13] = test system: Mus musculus; assay: Anti-inflammatory activity against DSS-induced ulcerative colitis C57BL/6J mouse model assessed as reduction in diarrhea at 3 and 30 mg/kg, po administered for 7 days and measured daily; type: functional, organism-based
[14] = test system: Mus musculus; assay: Anti-inflammatory activity against DSS-induced ulcerative colitis C57BL/6J mouse model assessed as reduction in impairment of host defense genes at 30 mg/kg, po administered for 7 days and measured on day 7 by proteomic analysis; type: functional, organism-based
[15] = test system: Mus musculus; assay: Anti-inflammatory activity against DSS-induced ulcerative colitis C57BL/6J mouse model assessed as reduction in TNFalpha production at 10 mg/kg, po administered for 7 days and measured on day 7 by ELISA; type: functional, organism-based
[16] = test system: Mus musculus; assay: Anti-inflammatory activity against DSS-induced ulcerative colitis C57BL/6J mouse model assessed as reduction in IL-1beta production at 10 mg/kg, po administered for 7 days and measured on day 7 by ELISA; type: functional, organism-based
[17] = test system: Mus musculus; assay: Anti-inflammatory activity against DSS-induced ulcerative colitis C57BL/6J mouse model assessed as reduction in body weight loss at 10 mg/kg, po administered for 7 days and measured daily; type: functional, organism-based
[18] = test system: Mus musculus; assay: In vivo inhibition of NFkappaB in C57BL/6J mouse DSS-induced ulcerative colitis model assessed as increase in accumulation of NRF2 in nucleus at 400 nM, po by confocal microscopy; type: functional, organism-based
[19] = test system: Mus musculus; assay: Anti-inflammatory activity against DSS-induced ulcerative colitis C57BL/6J mouse model assessed as restoration of colon length at 10 mg/kg, po administered for 7 days and measured on day 7; type: functional, organism-based
[20] = Acute toxicity in C57BL/6 mouse assessed as lethargy at 300 to 600 mg/kg, po administered for 7 days and measured on day 7; type: organism-based; conditions: in vivo, 168 h
[21] = test system: Mus musculus; assay: Anti-inflammatory activity against DSS-induced ulcerative colitis C57BL/6J mouse model assessed as reduction in impairment of T-cell receptor signalling genes at 30 mg/kg, po administered for 7 days and measured on day 7 by proteomic analysis; type: functional, organism-based
[22] = test system: Mus musculus; assay: Anti-inflammatory activity against DSS-induced ulcerative colitis C57BL/6J mouse model assessed as reduction in colon shortening at 3 and 30 mg/kg, po administered for 7 days and measured daily; type: functional, organism-based
[23] = Toxicity in C57BL/6 mouse assessed as effect on colon at 300 to 600 mg/kg, po administered for 7 days and measured on day 14; type: organism-based; conditions: in vivo, 168 h
[24] = organism: Homo sapiens; assay: Binding affinity to recombinant His-tagged IkBalpha (unknown origin) by SPR analysis
[25] = target: Voltage-gated inwardly rectifying potassium channel KCNH2 (Homo sapiens, UniProt Q12809); assay: Inhibition of human ERG expressed in human HEK293 cells by whole cell patch clamp assay; type: cell-based
Chain of Voltage-gated inwardly rectifying potassium channel KCNH2 (Q12809 whole entry): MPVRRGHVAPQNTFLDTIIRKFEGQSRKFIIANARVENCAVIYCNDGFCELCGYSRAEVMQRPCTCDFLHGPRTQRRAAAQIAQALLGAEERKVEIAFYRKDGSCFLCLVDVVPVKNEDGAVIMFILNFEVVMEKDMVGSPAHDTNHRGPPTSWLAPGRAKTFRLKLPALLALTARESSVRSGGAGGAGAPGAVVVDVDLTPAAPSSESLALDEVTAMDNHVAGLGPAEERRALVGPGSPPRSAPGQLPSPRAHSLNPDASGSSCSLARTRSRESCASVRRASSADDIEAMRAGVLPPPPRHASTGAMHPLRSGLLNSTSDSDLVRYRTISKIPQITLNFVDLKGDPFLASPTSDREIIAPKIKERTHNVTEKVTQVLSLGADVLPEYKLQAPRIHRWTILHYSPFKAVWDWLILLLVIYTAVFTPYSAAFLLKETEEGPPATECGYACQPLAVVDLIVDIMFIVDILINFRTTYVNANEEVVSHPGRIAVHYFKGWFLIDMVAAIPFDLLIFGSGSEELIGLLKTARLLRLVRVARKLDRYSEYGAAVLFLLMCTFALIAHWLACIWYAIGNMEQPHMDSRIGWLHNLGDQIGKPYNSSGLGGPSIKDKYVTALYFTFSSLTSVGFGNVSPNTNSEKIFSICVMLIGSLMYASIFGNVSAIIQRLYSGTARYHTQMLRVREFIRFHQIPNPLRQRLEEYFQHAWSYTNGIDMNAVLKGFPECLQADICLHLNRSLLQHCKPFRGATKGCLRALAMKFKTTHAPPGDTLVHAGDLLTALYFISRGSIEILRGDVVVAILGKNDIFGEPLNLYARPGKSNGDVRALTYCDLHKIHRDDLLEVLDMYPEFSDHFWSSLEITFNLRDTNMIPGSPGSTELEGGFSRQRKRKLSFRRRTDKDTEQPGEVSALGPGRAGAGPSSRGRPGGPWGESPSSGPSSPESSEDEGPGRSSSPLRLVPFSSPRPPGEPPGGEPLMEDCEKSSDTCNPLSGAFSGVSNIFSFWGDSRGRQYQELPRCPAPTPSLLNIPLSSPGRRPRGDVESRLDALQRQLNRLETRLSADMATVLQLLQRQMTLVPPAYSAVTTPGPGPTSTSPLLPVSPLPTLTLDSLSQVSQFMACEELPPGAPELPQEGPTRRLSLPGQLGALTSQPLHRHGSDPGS

[26] = Stability of compound in artificial gastric juice assessed as half life; type: ADME
[27] = test system: Mus musculus; assay: In vivo inhibition of NFkappaB in C57BL/6J mouse DSS-induced ulcerative colitis model assessed as increase in Nrf2 expression at 10 and 30 mg/kg, po administered for 7 days and measured on day 7 by Western blot analysis; type: functional, organism-based
[28] = test system: Mus musculus; assay: Anti-inflammatory activity against DSS-induced ulcerative colitis C57BL/6J mouse model assessed as reduction in colon swelling at 10 mg/kg, po administered for 7 days and measured on day 7; type: functional, organism-based
[29] = test system: Mus musculus; assay: Anti-inflammatory activity against DSS-induced ulcerative colitis C57BL/6J mouse model assessed as reduction in colitis orally administered for 7 days and measured on day 7 by […] and eosin staining based microscopic analysis; type: functional, organism-based
[30] = test system: Mus musculus; assay: Anti-inflammatory activity against DSS-induced ulcerative colitis C57BL/6J mouse model assessed as reduction in colon ulceration at 10 mg/kg, po administered for 7 days and measured on day 7; type: functional, organism-based
[31] = target: T1, Exportin-1 (Homo sapiens, UniProt O14980); assay: Reversible inhibition of CRM1 in human 293T cells assessed as increase in translocation of NES-GFP to […] at 4 uM incubated for 2 hrs by confocal laser scanning microscopy; type: cell-based
T1 sequence (O14980 whole entry): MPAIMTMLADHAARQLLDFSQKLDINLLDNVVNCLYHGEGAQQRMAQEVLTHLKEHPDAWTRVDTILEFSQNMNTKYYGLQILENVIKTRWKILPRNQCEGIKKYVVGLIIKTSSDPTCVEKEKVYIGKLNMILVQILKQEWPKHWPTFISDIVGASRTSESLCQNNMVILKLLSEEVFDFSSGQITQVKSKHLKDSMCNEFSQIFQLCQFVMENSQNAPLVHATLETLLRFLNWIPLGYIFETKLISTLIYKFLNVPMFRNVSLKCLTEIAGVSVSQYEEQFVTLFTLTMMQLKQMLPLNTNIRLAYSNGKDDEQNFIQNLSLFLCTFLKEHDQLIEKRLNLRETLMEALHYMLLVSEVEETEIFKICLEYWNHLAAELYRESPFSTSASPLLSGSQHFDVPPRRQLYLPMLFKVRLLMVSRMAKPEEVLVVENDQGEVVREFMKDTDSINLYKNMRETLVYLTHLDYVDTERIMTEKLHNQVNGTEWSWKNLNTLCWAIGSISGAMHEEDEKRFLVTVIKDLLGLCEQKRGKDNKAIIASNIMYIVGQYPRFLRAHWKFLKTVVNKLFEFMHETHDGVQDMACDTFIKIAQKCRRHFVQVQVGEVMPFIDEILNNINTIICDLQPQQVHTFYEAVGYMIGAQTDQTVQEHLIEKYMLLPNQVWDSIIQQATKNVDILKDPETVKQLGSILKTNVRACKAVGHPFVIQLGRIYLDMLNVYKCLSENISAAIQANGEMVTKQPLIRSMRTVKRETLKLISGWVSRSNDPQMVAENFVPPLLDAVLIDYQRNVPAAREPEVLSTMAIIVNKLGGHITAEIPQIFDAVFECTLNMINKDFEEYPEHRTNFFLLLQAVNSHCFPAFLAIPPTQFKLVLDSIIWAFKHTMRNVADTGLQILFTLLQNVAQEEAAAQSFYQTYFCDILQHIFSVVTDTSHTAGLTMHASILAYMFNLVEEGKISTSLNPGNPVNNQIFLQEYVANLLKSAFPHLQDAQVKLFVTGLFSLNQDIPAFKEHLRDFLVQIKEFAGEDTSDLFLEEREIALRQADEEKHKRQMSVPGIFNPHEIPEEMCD

[32] = test system: Mus musculus; assay: Anti-inflammatory activity against DSS-induced ulcerative colitis C57BL/6J mouse model assessed as reduction in IL-6 production at 10 mg/kg, po administered for 7 days and measured on day 7 by ELISA; type: functional, organism-based
[33] = test system: Mus musculus; assay: In vivo inhibition of NFkappaB in C57BL/6J mouse DSS-induced ulcerative colitis model assessed as downregulation of MRP8 expression at 10 and 30 mg/kg, po administered for 7 days and measured on day 7 by Western blot analysis; type: functional, organism-based
[34] = test system: Mus musculus; assay: In vivo inhibition of NFkappaB in C57BL/6J mouse DSS-induced ulcerative colitis model assessed as reduction in NQO1 expression at 10 and 30 mg/kg, po administered for 7 days and measured on day 7 by Western blot analysis; type: functional, organism-based
[35] = test system: Mus musculus; assay: Anti-inflammatory activity against DSS-induced ulcerative colitis C57BL/6J mouse model assessed as restoration of damaged colon mucosal layer at 10 mg/kg, po administered for 7 days and measured on day 7 by ELISA; type: functional, organism-based
[36] = test system: Mus musculus; assay: Anti-inflammatory activity against DSS-induced ulcerative colitis C57BL/6J mouse model assessed as reduction in impairment of immune response genes at 30 mg/kg, po administered for 7 days and measured on day 7 by proteomic analysis; type: functional, organism-based
[37] = test system: Mus musculus; assay: In vivo inhibition of NFkappaB in C57BL/6J mouse DSS-induced ulcerative colitis model assessed as downregulation of MRP14 expression at 10 and 30 mg/kg, po administered for 7 days and measured on day 7 by Western blot analysis; type: functional, organism-based
[38] = test system: Mus musculus; assay: Anti-inflammatory activity against DSS-induced ulcerative colitis C57BL/6J mouse model assessed as reduction in diarrhea at 10 mg/kg, po administered for 7 days and measured daily; type: functional, organism-based
[39] = Acute toxicity in C57BL/6 mouse assessed as sickness indication at 300 to 600 mg/kg, po administered for 7 days and measured on day 7; type: organism-based; conditions: in vivo, 168 h
[40] = test system: Mus musculus; assay: Anti-inflammatory activity against DSS-induced ulcerative colitis C57BL/6J mouse model assessed as reduction in impairment of NF-kappaB signalling genes at 30 mg/kg, po administered for 7 days and measured on day 7 by proteomic analysis; type: functional, organism-based
[41] = test system: Mus musculus; assay: In vivo inhibition of NFkappaB in C57BL/6J mouse DSS-induced ulcerative colitis model assessed as increase in accumulation of IkBalpha in nucleus at 400 nM, po by confocal microscopy; type: functional, organism-based
[42] = test system: Mus musculus; assay: Anti-inflammatory activity against DSS-induced ulcerative colitis C57BL/6J mouse model assessed as reduction in impairment of epithelial barrier genes at 30 mg/kg, po administered for 7 days and measured on day 7 by proteomic analysis; type: functional, organism-based
[43] = target: T1, Exportin-1; assay: Binding affinity to recombinant His-tagged CRM1 (unknown origin) by SPR analysis
[44] = test system: HCT-15; assay: Antiproliferative activity against CRM1 siRNA […] human HCT15 cells assessed as reduction in cell viability incubated for 24 hrs; type: functional, cell-based; conditions: HCT-15, 24 h
[45] = target: Kelch-like ECH-associated protein 1 (Homo sapiens) (UniProt Q14145); assay: Binding affinity to recombinant His-tagged Keap1 (unknown origin) by SPR analysis
Chain of Kelch-like ECH-associated protein 1 (Homo sapiens) (Q14145 whole entry): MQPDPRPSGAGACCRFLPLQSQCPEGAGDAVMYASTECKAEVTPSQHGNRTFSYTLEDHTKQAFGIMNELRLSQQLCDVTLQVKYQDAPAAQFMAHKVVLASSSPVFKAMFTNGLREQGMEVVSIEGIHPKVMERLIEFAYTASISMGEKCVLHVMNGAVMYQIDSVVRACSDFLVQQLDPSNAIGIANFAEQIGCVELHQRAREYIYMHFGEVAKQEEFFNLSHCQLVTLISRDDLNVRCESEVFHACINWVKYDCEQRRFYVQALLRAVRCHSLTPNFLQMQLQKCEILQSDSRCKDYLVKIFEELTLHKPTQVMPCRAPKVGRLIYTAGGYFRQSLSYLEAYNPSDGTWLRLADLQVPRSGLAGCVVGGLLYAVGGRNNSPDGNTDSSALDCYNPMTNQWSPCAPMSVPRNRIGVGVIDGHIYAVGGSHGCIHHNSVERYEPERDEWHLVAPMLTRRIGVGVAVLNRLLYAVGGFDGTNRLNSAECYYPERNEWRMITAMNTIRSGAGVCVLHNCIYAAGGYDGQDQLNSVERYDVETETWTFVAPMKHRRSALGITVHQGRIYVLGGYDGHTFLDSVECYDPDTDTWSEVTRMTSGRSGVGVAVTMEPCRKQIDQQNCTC

[46] = test system: Mus musculus; assay: Anti-inflammatory activity against DSS-induced ulcerative colitis C57BL/6J mouse model assessed as reduction in COX-2 production at 10 mg/kg, po administered for 7 days and measured on day 7 by ELISA; type: functional, organism-based
[47] = Stability of compound in artificial intestinal juice assessed as half life; type: ADME
[48] = test system: Mus musculus; assay: Anti-inflammatory activity against DSS-induced ulcerative colitis C57BL/6J mouse model assessed as reduction in body weight loss at 3 and 30 mg/kg, po administered for 7 days and measured daily; type: functional, organism-based
[49] = Cytotoxicity activity against human SNK6 cells assessed as GSH:GSSG ratio at 1 uM incubated for 48 hrs by GSH and GSSG assay kit method; type: cell-based
[50] = Permeability in human Caco2 cells at 10 uM incubated for 4 hrs by LC-MS/MS analysis; type: ADME, cell-based; conditions: caco-2, 4 h
[51] = Acute toxicity in C57BL/6 mouse assessed as weight loss at 300 to 600 mg/kg, po administered for 7 days and measured on day 7; type: organism-based; conditions: in vivo, 168 h
[52] = test system: Mus musculus; assay: Anti-inflammatory activity against DSS-induced ulcerative colitis C57BL/6J mouse model assessed as reduction in IL-23 production at 10 mg/kg, po administered for 7 days and measured on day 7 by ELISA; type: functional, organism-based
[53] = test system: Mus musculus; assay: In vivo inhibition of NFkappaB in C57BL/6J mouse DSS-induced ulcerative colitis model assessed as reduction in NFkappaB p65 expression at 10 and 30 mg/kg, po administered for 7 days and measured on day 7 by Western blot analysis; type: functional, organism-based

Nc1ccc(O)c(C(=O)O)c1
Activity [1]: inactive | Activity [2]: inactive | Activity [3]: inactive | Activity [4]: inactive | Activity [5]: inactive

[O-][S@@+](/C=C/CCN=C=S)c1cc(C(F)(F)F)cc(C(F)(F)F)c1
Activity [6]: Active | Activity [7]: Active | inhibition [8]: Active | Activity [9]: Active | Activity [10]: Non-Toxic | Activity [1]: Active | inhibition [11]: Active | Activity [2]: Active | Activity [3]: Active | Activity [12]: Active | Activity [13]: Active | Activity [14]: Active | Activity [15]: Active | Activity [16]: Active | Activity [17]: Active | Activity [4]: Active | inhibition [18]: Active | Activity [19]: Active | Activity [20]: Non-Toxic | Activity [21]: Active | Activity [22]: Active | Activity [23]: Non-Toxic | Activity [24]: inactive | IC50 [25]: > 30 µM | half-life [26]: 24 h | inhibition [27]: Active | Activity [28]: Active | Activity [29]: Dose-dependent effect | Activity [30]: Active | Activity [5]: Active | inhibition [31]: 100% | Activity [32]: Active | inhibition [33]: Active | inhibition [34]: Active | Activity [35]: Active | Activity [36]: Active | inhibition [37]: Active | Activity [38]: Active | Activity [39]: Non-Toxic | Activity [40]: Active | inhibition [41]: Active | Activity [42]: Active | Kd [43]: 0.0269 µM | IC50 [44]: 14.7 µM | Activity [45]: inactive | Activity [46]: Active | half-life [47]: 8 h | Activity [48]: Active | Activity [49]: Non-Toxic | permeability [50]: Permeable | Activity [51]: Non-Toxic | Activity [52]: Active | inhibition [53]: Active
